How the values were obtained:
Test in all cases: DiscoverX KinomeScreen kinase selectivity competition binding assay
[1] = target: T1, panel of ninety-seven kinases (Homo sapiens, UniProt P27361); settings: MAPK3; read-out: % Ctrl @ 3 μM
T1 construct: purchased DiscoverX; host or cells: T7 phage in E. coli (BL21-derived) for most kinases; HEK-293 for the rest
Method: (§1) Atropisomer A-2 has been tested for off-target activity against a panel of ninety-seven kinases distributed across the kinome at a concentration of 3 μM using the DiscoverX KinomeScreen assay. The DiscoverX KinomeScreen assay is a site-directed competition binding assay which measures the binding affinity of a compound to a kinase, by use of a solid supported control compound which can bind or capture the kinases in solution. In the absence of a kinase-inhibitor test compound, all of the kinase will bind to the solid support. If a kinase-inhibitor test compound is added to the assay mix, the amount of kinase binding to the solid support will be reduced, the extent of reduction being dependent on the potency of the test compound as a kinase inhibitor. […] For most assays, kinase-tagged T7 phage strains were grown in parallel in 24-well blocks in an E. coli host derived from the BL21 strain. E. coli were grown to log-phase and infected with T7 phage from a frozen stock (multiplicity of infection=0.4) and incubated with shaking at 32° C. until lysis (90-150 minutes). The lysates were centrifuged (6,000×g) and filtered (0.2 μm) to remove cell debris. The remaining kinases were produced in HEK-293 cells and subsequently tagged with DNA for qPCR detection. Streptavidin-coated magnetic beads were treated with biotinylated small molecule ligands for 30 minutes at room temperature to generate affinity resins for kinase assays. The liganded beads were blocked with excess biotin and washed with blocking buffer (SeaBlock (Pierce), 1% BSA, 0.05% Tween 20, 1 mM DTT) to remove unbound ligand and to reduce non-specific phage binding. […] Test compounds were prepared as 40× stocks in 100% DMSO and directly diluted into the assay. All reactions were performed in polypropylene 384-well plates in a final volume of 0.02 ml. […] The beads were then re-suspended in elution buffer (1×PBS, 0.05% Tween 20, 0.5 μM non-biotinylated affinity ligand) and incubated at room temperature with shaking for 30 minutes. The kinase concentration in the eluates was measured by qPCR. Compounds that bind the kinase active site and directly (sterically) or indirectly (allosterically) prevent kinase binding to the immobilized ligand, will reduce the amount of kinase captured on the solid support. […] The strength of binding of the test molecule to the kinase can be expressed as the percent control (% Ctrl) The compound(s) were screened at 3000 nM concentration, and results for primary screen binding interactions are reported as ‘% Ctrl’, where lower numbers indicate stronger hits in the matrix on the following page(s). [formula] • negative control=DMSO (100% Ctrl) • positive control=control compound (0% Ctrl)

[2] = target: T2, panel of ninety-seven kinases (Homo sapiens, UniProt P16234); settings: PDGFRA; read-out: % Ctrl @ 3 μM
T2 construct: purchased DiscoverX; host or cells: T7 phage in E. coli (BL21-derived) for most kinases; HEK-293 for the rest
Method: as §1

[3] = target: T3, panel of ninety-seven kinases (Homo sapiens, UniProt Q9Y6R4); settings: MAP3K4; read-out: % Ctrl @ 3 μM
T3 construct: purchased DiscoverX; host or cells: T7 phage in E. coli (BL21-derived) for most kinases; HEK-293 for the rest
Method: as §1

[4] = target: T4, panel of ninety-seven kinases (Homo sapiens, UniProt P53779); settings: MAPK10; read-out: % Ctrl @ 3 μM
T4 construct: purchased DiscoverX; host or cells: T7 phage in E. coli (BL21-derived) for most kinases; HEK-293 for the rest
Method: as §1

[5] = target: T5, panel of ninety-seven kinases (Homo sapiens, UniProt Q9BWU1); settings: CDK19; read-out: % Ctrl @ 3 μM
T5 construct: purchased DiscoverX; host or cells: T7 phage in E. coli (BL21-derived) for most kinases; HEK-293 for the rest
Method: as §1

[6] = target: T6, panel of ninety-seven kinases (Homo sapiens, UniProt Q13153); settings: PAK1; read-out: % Ctrl @ 3 μM
T6 construct: purchased DiscoverX; host or cells: T7 phage in E. coli (BL21-derived) for most kinases; HEK-293 for the rest
Method: as §1

[7] = target: T7, panel of ninety-seven kinases (Homo sapiens, UniProt P11309); settings: PIM1; read-out: % Ctrl @ 3 μM
T7 construct: purchased DiscoverX; host or cells: T7 phage in E. coli (BL21-derived) for most kinases; HEK-293 for the rest
Method: as §1

[8] = target: T8, panel of ninety-seven kinases (Homo sapiens, UniProt Q06187); settings: BTK; read-out: % Ctrl @ 3 μM
T8 construct: purchased DiscoverX; host or cells: T7 phage in E. coli (BL21-derived) for most kinases; HEK-293 for the rest
Method: as §1

[9] = target: T9, panel of ninety-seven kinases (Homo sapiens, UniProt O15530); settings: PDPK1; read-out: % Ctrl @ 3 μM
T9 construct: purchased DiscoverX; host or cells: T7 phage in E. coli (BL21-derived) for most kinases; HEK-293 for the rest
Method: as §1

[10] = target: T10, panel of ninety-seven kinases (Homo sapiens, UniProt P78368); settings: CSNK1G2; read-out: % Ctrl @ 3 μM
T10 construct: purchased DiscoverX; host or cells: T7 phage in E. coli (BL21-derived) for most kinases; HEK-293 for the rest
Method: as §1

[11] = target: T11, panel of ninety-seven kinases (Homo sapiens, UniProt P36896); settings: ACVR1B; read-out: % Ctrl @ 3 μM
T11 construct: purchased DiscoverX; host or cells: T7 phage in E. coli (BL21-derived) for most kinases; HEK-293 for the rest
Method: as §1

[12] = target: T12, panel of ninety-seven kinases (Homo sapiens, UniProt P80192); settings: MAP3K9; read-out: % Ctrl @ 3 μM
T12 construct: purchased DiscoverX; host or cells: T7 phage in E. coli (BL21-derived) for most kinases; HEK-293 for the rest
Method: as §1

[13] = target: T13, panel of ninety-seven kinases (Homo sapiens, UniProt P45983); settings: MAPK8; read-out: % Ctrl @ 3 μM
T13 construct: purchased DiscoverX; host or cells: T7 phage in E. coli (BL21-derived) for most kinases; HEK-293 for the rest
Method: as §1

[14] = target: T14, panel of ninety-seven kinases (Homo sapiens, UniProt P29317); settings: EPHA2; read-out: % Ctrl @ 3 μM
T14 construct: purchased DiscoverX; host or cells: T7 phage in E. coli (BL21-derived) for most kinases; HEK-293 for the rest
Method: as §1

[15] = target: T15, panel of ninety-seven kinases (Homo sapiens, UniProt P42336); settings: PIK3CA; read-out: % Ctrl @ 3 μM
T15 construct: purchased DiscoverX; host or cells: T7 phage in E. coli (BL21-derived) for most kinases; HEK-293 for the rest
Method: as §1

[16] = target: T16, panel of ninety-seven kinases (Homo sapiens, UniProt P04049); settings: RAF1; read-out: % Ctrl @ 3 μM
T16 construct: purchased DiscoverX; host or cells: T7 phage in E. coli (BL21-derived) for most kinases; HEK-293 for the rest
Method: as §1

[17] = target: T17, panel of ninety-seven kinases (Homo sapiens, UniProt P48730); settings: CSNK1D; read-out: % Ctrl @ 3 μM
T17 construct: purchased DiscoverX; host or cells: T7 phage in E. coli (BL21-derived) for most kinases; HEK-293 for the rest
Method: as §1

[18] = target: T18, panel of ninety-seven kinases (Homo sapiens, UniProt O60674); settings: JAK2; read-out: % Ctrl @ 3 μM
T18 construct: purchased DiscoverX; host or cells: T7 phage in E. coli (BL21-derived) for most kinases; HEK-293 for the rest
Method: as §1

[19] = target: T19, panel of ninety-seven kinases (Homo sapiens, UniProt O75116); settings: ROCK2; read-out: % Ctrl @ 3 μM
T19 construct: purchased DiscoverX; host or cells: T7 phage in E. coli (BL21-derived) for most kinases; HEK-293 for the rest
Method: as §1

[20] = target: T20, panel of ninety-seven kinases (Homo sapiens, UniProt Q02156); settings: PRKCE; read-out: % Ctrl @ 3 μM
T20 construct: purchased DiscoverX; host or cells: T7 phage in E. coli (BL21-derived) for most kinases; HEK-293 for the rest
Method: as §1

[21] = target: T21, panel of ninety-seven kinases (Homo sapiens, UniProt P36888); settings: FLT3; read-out: % Ctrl @ 3 μM
T21 construct: purchased DiscoverX; host or cells: T7 phage in E. coli (BL21-derived) for most kinases; HEK-293 for the rest
Method: as §1

- percent of control kinase binding to immobilized ligand at 3 µM [1]: 99%
- percent of control kinase binding to immobilized ligand at 3 µM [2]: 100%
- percent of control kinase binding to immobilized ligand at 3 µM [3]: 93%
- percent of control kinase binding to immobilized ligand at 3 µM [4]: 93%
- percent of control kinase binding to immobilized ligand at 3 µM [5]: 81%
- percent of control kinase binding to immobilized ligand at 3 µM [6]: 87%
- percent of control kinase binding to immobilized ligand at 3 µM [7]: 99%
- percent of control kinase binding to immobilized ligand at 3 µM [8]: 94%
- percent of control kinase binding to immobilized ligand at 3 µM [9]: 96%
- percent of control kinase binding to immobilized ligand at 3 µM [10]: 100%
- percent of control kinase binding to immobilized ligand at 3 µM [11]: 96%
- percent of control kinase binding to immobilized ligand at 3 µM [12]: 96%
- percent of control kinase binding to immobilized ligand at 3 µM [13]: 77%
- percent of control kinase binding to immobilized ligand at 3 µM [14]: 100%
- percent of control kinase binding to immobilized ligand at 3 µM [15]: 100%
- percent of control kinase binding to immobilized ligand at 3 µM [16]: 92%
- percent of control kinase binding to immobilized ligand at 3 µM [17]: 91%
- percent of control kinase binding to immobilized ligand at 3 µM [18]: 80%
- percent of control kinase binding to immobilized ligand at 3 µM [19]: 88%
- percent of control kinase binding to immobilized ligand at 3 µM [20]: 99%
- percent of control kinase binding to immobilized ligand at 3 µM [21]: 100%
SMILES: CN(C)CCNC(=O)c1ccc(-c2ccc(-c3ccc(Cl)cc3)n2-c2ccccc2C(F)(F)F)cc1 (single isomer, unassigned) [Atropisomer A-2, 4-[5-(4-chlorophenyl)-1-[2-(trifluoromethyl)phenyl]pyrrol-2-yl]-N-[2-(dimethylamino)ethyl]benzamide]
